Experimental data from ChEMBL document CHEMBL1201862, “PubChem BioAssay data set” (2004).
Several values for one entry are separate records, joined by “and”; a condition that tells them apart may be missing. Equal values may be shown once.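 Growth conditions: 96-well plates. Treatment: test compound, 48 hours, 5 concentrations. Analysis: linear interpolation between bracketing concentrations; unreached endpoints set to highest concentration. GI50: concentration for 50% inhibition of growth.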 Activity calls are given as the source filed them. Rule as the data show it: active = GI50 up to about 1.1 µM and inactive = higher.

Legend:
Test in all cases: NCI anticancer screen, dose series, 48 h
OVCAR-4 = system: OVCAR-4
RPMI-8226 = system: RPMI-8226
SK-MEL-5 = system: SK-MEL-5
DU-145 = system: DU-145
TK-10 = system: TK-10
OVCAR-8 = system: OVCAR-8
HOP-18 = system: HOP-18
SR = system: SR
MDA-MB-435 = system: MDA-MB-435
HOP-92 = system: HOP-92
NCI/ADR-RES = system: NCI/ADR-RES
NCI-H226 = system: NCI-H226
NCI-H460 = system: NCI-H460
DMS-114 = system: DMS-114
SW-620 = system: SW-620
KM12 = system: KM12
SF-268 = system: SF-268
M19-MEL = system: M19-MEL
SF-295 = system: SF-295
SK-MEL-2 = system: SK-MEL-2
HCC 2998 = system: HCC 2998
UACC-257 = system: UACC-257
A498 = system: A498
MDA-MB-231 = system: MDA-MB-231
BT-549 = system: BT-549
A549 = system: A549
SNB-78 = system: SNB-78
SK-OV-3 = system: SK-OV-3
XF498 = system: XF498
HT-29 = system: HT-29
ACHN = system: ACHN
CCRF-CEM = system: CCRF-CEM
UO-31 = system: UO-31
Malme-3M = system: Malme-3M
U-251 = system: U-251
NCI-H23 = system: NCI-H23
HL-60 = system: HL-60
SF-539 = system: SF-539
SN12C = system: SN12C
UACC-62 = system: UACC-62
COLO 205 = system: COLO 205
LOX IMVI = system: LOX IMVI
DLD-1 = system: DLD-1
MCF7 = system: MCF7
LXFL 529 = system: LXFL 529
MOLT-4 = system: MOLT-4
DMS-273 = system: DMS-273
PC-3 = system: PC-3
CAKI-1 = system: CAKI-1
Hs-578T = system: Hs-578T
KM-20L2 = system: KM-20L2
OVCAR-5 = system: OVCAR-5
SNB-19 = system: SNB-19
OVCAR-3 = system: OVCAR-3
NCI-H522 = system: NCI-H522
HCT-15 = system: HCT-15
786-0 = system: 786-0
SNB-75 = system: SNB-75
M14 = system: M14
IGROV-1 = system: IGROV-1
K562 = system: K562
MDA-N = system: MDA-N
SK-MEL-28 = system: SK-MEL-28
RXF 393 = system: RXF 393
T47D = system: T47D
EKVX = system: EKVX
HCT-116 = system: HCT-116
HOP-62 = system: HOP-62
RXF 631 = system: RXF 631

In the case of `CCOc1ccc(NC2=CC(=O)C(=O)c3ccccc32)cc1`, the GI50 (OVCAR-4) is reported as 3.48 µM (inactive), the GI50 (RPMI-8226) is reported as 4.47 µM (inactive) and the GI50 (SK-MEL-5) is reported as 1.59 µM (inactive). For the same compound, the GI50 (DU-145) was 2.38 µM (inactive), the GI50 (TK-10) was 8.32 µM (inactive) and the GI50 (OVCAR-8) was 4.33 µM (inactive). For the same compound, the GI50 (HOP-18) was 2.6 µM (inactive), the GI50 (SR) was 3.4 µM (inactive) and the GI50 (MDA-MB-435) was 1.8 µM (inactive). The GI50 (HOP-92) was 9.48 µM (inactive), the GI50 (NCI/ADR-RES) was 2.83 µM (inactive) and the GI50 (NCI-H226) was 4.86 µM (inactive). For the same compound, the GI50 (NCI-H460) was 2.47 µM (inactive), the GI50 (DMS-114) was 1.88 µM (inactive) and the GI50 (SW-620) was 1.82 µM (inactive). The GI50 (KM12) was 3.77 µM (inactive), the GI50 (SF-268) was 6.25 µM (inactive) and the GI50 (M19-MEL) was 647 nM (active). The GI50 (SF-295) was 2.61 µM (inactive), the GI50 (SK-MEL-2) was 4.31 µM (inactive) and the GI50 (HCC 2998) was 13.1 µM (inactive). For the same compound, the GI50 (UACC-257) was 1.63 µM (inactive), the GI50 (A498) was 3.61 µM (inactive) and the GI50 (MDA-MB-231) was 12.1 µM (inactive). The GI50 (BT-549) was 1.66 µM (inactive), the GI50 (A549) was 2.74 µM (inactive) and the GI50 (SNB-78) was 15.5 µM (inactive). The GI50 (SK-OV-3) was 11.3 µM (inactive), the GI50 (XF498) was 2.25 µM (inactive) and the GI50 (HT-29) was 5.35 µM (inactive). The GI50 (ACHN) was 2.28 µM (inactive), the GI50 (CCRF-CEM) was 9.48 µM (inactive) and the GI50 (UO-31) was 4.45 µM (inactive). The GI50 (Malme-3M) was 2.08 µM (inactive), the GI50 (U-251) was 3.85 µM (inactive) and the GI50 (NCI-H23) was 1.91 µM (inactive). For the same compound, the GI50 (HL-60) was 0.459 µM (active), the GI50 (SF-539) was 1.97 µM (inactive) and the GI50 (SN12C) was 1.82 µM (inactive). The GI50 (UACC-62) was 1.72 µM (inactive), the GI50 (COLO 205) was 3.64 µM (inactive) and the GI50 (LOX IMVI) was 1.3 µM (inactive). For the same compound, the GI50 (DLD-1) was 4.43 µM (inactive), the GI50 (MCF7) was 2.15 µM (inactive) and the GI50 (LXFL 529) was 3.47 µM (inactive). The GI50 (MOLT-4) was 8.83 µM (inactive), the GI50 (DMS-273) was 2.88 µM (inactive) and the GI50 (PC-3) was 3.12 µM (inactive). For the same compound, the GI50 (CAKI-1) was 8.05 µM (inactive), the GI50 (Hs-578T) was 2.37 µM (inactive) and the GI50 (KM-20L2) was 18.7 µM (inactive). The GI50 (OVCAR-5) was 3.77 µM (inactive), the GI50 (SNB-19) was 2.94 µM (inactive) and the GI50 (OVCAR-3) was 2.86 µM (inactive). The GI50 (NCI-H522) was 1.81 µM (inactive), the GI50 (HCT-15) was 2340 nM and the GI50 (786-0) was 3.78 µM (inactive). For the same compound, the GI50 (SNB-75) was 2.35 µM (inactive), the GI50 (M14) was 1.75 µM (inactive) and the GI50 (IGROV-1) was 4.29 µM (inactive). The GI50 (K562) was 5.07 µM (inactive), the GI50 (MDA-N) was 2.05 µM (inactive) and the GI50 (SK-MEL-28) was 3.27 µM (inactive). For the same compound, the GI50 (RXF 393) was 5.87 µM (inactive), the GI50 (T47D) was 8.79 µM (inactive) and the GI50 (EKVX) was 16.4 µM (inactive). The GI50 (HCT-116) was 3.35 µM (inactive) and the GI50 (HOP-62) was 3.88 µM (inactive).
For `CCN(CC)CCN1C(=O)c2c(c3c4cccc(Cl)c4n(C4OC(CO)C(OC)C(O)C4O)c3c3[nH]c4c(Cl)cccc4c23)C1=O` (stereo not given), the GI50 (DU-145) was 0.0121 µM (active), the GI50 (HOP-18) was 0.00101 µM (active) and the GI50 (SR) was < 0.0137 µM (active). For the same compound, the GI50 (MDA-MB-435) was 0.0147 µM (active), the GI50 (HOP-92) was < 34.4 nM (active) and < 24 nM (active) and the GI50 (NCI/ADR-RES) was 0.169 µM (active). For the same compound, the GI50 (DMS-114) was 0.0413 µM (active), the GI50 (M19-MEL) was 30.3 nM (active) and the GI50 (SF-295) was < 0.0165 µM (active). For the same compound, the GI50 (SK-MEL-2) was 42.8 nM (active) and 68.1 nM (active), the GI50 (MDA-MB-231) was 0.182 µM (active) and the GI50 (BT-549) was 0.175 µM (active). For the same compound, the GI50 (SNB-78) was 0.00101 µM (active), the GI50 (XF498) was 0.0463 µM (active) and the GI50 (HT-29) was < 0.0189 µM (active). The GI50 (CCRF-CEM) was < 0.0166 µM (active), the GI50 (DLD-1) was 0.0918 µM (active) and the GI50 (MCF7) was < 0.01 µM (active). The GI50 (LXFL 529) was < 0.0239 µM (active), the GI50 (MOLT-4) was < 10 nM (active) and 17.6 nM (active) and the GI50 (DMS-273) was < 0.0178 µM (active). The GI50 (PC-3) was < 0.0386 µM (active), the GI50 (Hs-578T) was 0.0379 µM (active) and the GI50 (KM-20L2) was 0.773 µM (active). For the same compound, the GI50 (HCT-15) was 103 nM and 132 nM, the GI50 (MDA-N) was 0.0111 µM (active) and the GI50 (T47D) was 0.0212 µM (active). The GI50 (HCT-116) was < 0.0164 µM (active).
For `COc1ccc(CN2C(=O)C(Cc3cc(OC)c(OC)c(C)c3OC)NC(=O)/C2=C/c2cc(OC)c(OC)c(C)c2OC)cc1` (stereo not given), the GI50 (OVCAR-4) was 30.6 µM (inactive), the GI50 (RPMI-8226) was 28.3 µM (inactive) and the GI50 (SK-MEL-5) was 18 µM (inactive). For the same compound, the GI50 (TK-10) was 33.5 µM (inactive), the GI50 (OVCAR-8) was 32.1 µM (inactive) and the GI50 (HOP-18) was 26.1 µM (inactive). For the same compound, the GI50 (SR) was 20.3 µM (inactive), the GI50 (HOP-92) was 29 µM (inactive) and the GI50 (NCI-H226) was 18.7 µM (inactive). The GI50 (NCI-H460) was 9.98 µM (inactive), the GI50 (DMS-114) was 33.2 µM (inactive) and the GI50 (SW-620) was 33.9 µM (inactive). For the same compound, the GI50 (KM12) was 38.8 µM (inactive), the GI50 (SF-268) was 51.6 µM (inactive) and the GI50 (M19-MEL) was 19300 nM (inactive). For the same compound, the GI50 (SF-295) was 43.5 µM (inactive), the GI50 (SK-MEL-2) was 19.3 µM (inactive) and the GI50 (HCC 2998) was 23.6 µM (inactive). The GI50 (UACC-257) was 37.5 µM (inactive), the GI50 (A498) was 49.4 µM (inactive) and the GI50 (A549) was 37.1 µM (inactive). The GI50 (SK-OV-3) was 34 µM (inactive), the GI50 (HT-29) was 24.2 µM (inactive) and the GI50 (ACHN) was 31.7 µM (inactive). The GI50 (CCRF-CEM) was 27 µM (inactive), the GI50 (UO-31) was 23.4 µM (inactive) and the GI50 (RXF 631) was 43 µM (inactive). The GI50 (Malme-3M) was 22.6 µM (inactive), the GI50 (U-251) was 37.2 µM (inactive) and the GI50 (NCI-H23) was 43.1 µM (inactive). The GI50 (HL-60) was 18.3 µM (inactive), the GI50 (SF-539) was 45.6 µM (inactive) and the GI50 (SN12C) was 27.5 µM (inactive). For the same compound, the GI50 (UACC-62) was 33.7 µM (inactive), the GI50 (COLO 205) was 22.8 µM (inactive) and the GI50 (LOX IMVI) was 41.8 µM (inactive). For the same compound, the GI50 (DLD-1) was 33 µM (inactive), the GI50 (LXFL 529) was 31.8 µM (inactive) and the GI50 (MOLT-4) was 24.8 µM (inactive). For the same compound, the GI50 (DMS-273) was > 10 µM (inactive), the GI50 (KM-20L2) was 25 µM (inactive) and the GI50 (OVCAR-5) was 44.9 µM (inactive). The GI50 (OVCAR-3) was 26.1 µM (inactive), the GI50 (NCI-H522) was 18.5 µM (inactive) and the GI50 (786-0) was 48.4 µM (inactive). The GI50 (SNB-75) was 33.5 µM (inactive), the GI50 (M14) was 32.1 µM (inactive) and the GI50 (IGROV-1) was 53.2 µM (inactive). The GI50 (K562) was 33 µM (inactive), the GI50 (SK-MEL-28) was 59.8 µM (inactive) and the GI50 (RXF 393) was 25.8 µM (inactive). For the same compound, the GI50 (EKVX) was 48.1 µM (inactive), the GI50 (HCT-116) was 26.4 µM (inactive) and the GI50 (HOP-62) was 50.9 µM (inactive).
